From patent US20150224085A1, “METHOD OF ADMINISTERING A 5,5-FUSED HETEROARYLENE HEPATITIS C VIRUS INHIBITOR FOR TREATING OF PREVENTING HEPATITIS C VIRUS INFECTION” (priority 2012, published 2015)
Where “and” joins values, the source holds several entries; their conditions need not be identical. Equal values may be shown once.

What was measured:
clinical = settings: human, in vivo
Protocol: (§1) The phase I/IIa study was designed to evaluate safety and tolerability, pharmacokinetics (PK), food effect, and antiviral activity with regard to the Compound. The key safety parameters that were evaluated in the trial include adverse events (AEs), physical examination, vital signs, 12-lead electrocardiogram (ECG), and standard safety laboratory tests. The key antiviral activity parameters that were evaluated in the trial include changes in plasma HCV RNA and emergence of resistance mutations. The key pharmacokinetic parameters that were evaluated in the trial include plasma and urine concentrations of the Compound.
(§2) In the phase I/IIa study, plasma HCV RNA was quantitated using a validated commercial assay (COBAS® TAQMAN®) with a lower limit of quantitation of 25 IU/mL. HCV RNA genotyping was performed at Baseline using the Versant HCV Genotype Assay (LiPA) 2.0.
(§3) In Group B, the Compound was evaluated in an open-label, single day study in 18 subjects with chronic HCV Genotype 1, 2, or 3 infection. […] For all cohorts, dosing was under fasted in this study.

[1] = 28-day toxicity study in cynomolgus monkeys
Protocol: Safety margins were calculated based upon proposed human doses in the first-in-human trial and human equivalent dose (HED) calculations derived from the two 28-day toxicology studies in mice and monkeys. This approach is consistent with the United States Food and Drug Administration Guidance for Industry entitled “Estimating the Maximum Safe Starting Dose in Initial Clinical Trials for Therapeutics in Adult Healthy Volunteers,” July 2005.

[2] = Phase I/IIa Group A: pharmacokinetics in healthy subjects; type: in vivo, human; settings: for Cmax / half-life / AUC(0-inf) / Tmax: human, plasma, oral
Protocol: The phase I/IIa study was designed to evaluate safety and tolerability, pharmacokinetics (PK), food effect, and antiviral activity with regard to the Compound. The key safety parameters that were evaluated in the trial include adverse events (AEs), physical examination, vital signs, 12-lead electrocardiogram (ECG), and standard safety laboratory tests. The key antiviral activity parameters that were evaluated in the trial include changes in plasma HCV RNA and emergence of resistance mutations. The key pharmacokinetic parameters that were evaluated in the trial include plasma and urine concentrations of the Compound. […]
The Compound was first evaluated in a randomized, double-blind, placebo-controlled, sequential dose escalation study in 48 healthy subjects. For each cohort, there were 6 subjects to receive the Compound and 2 subjects to receive placebo. Except cohort 5a, the Compound was administered under fasted conditions.
For the food effect study (cohort 5a), subjects received a single dose of 50 mg of the Compound or placebo on Days 1 and 8, with a 7 day washout between dosing periods. In the food effect study, the subjects were randomized among two groups, differing by fasted/fed dosing sequences as shown in Table 3.

HCV Genotype 1b = experiment: Phase I/IIa Group B: plasma HCV RNA reduction after single dose, Genotype 1b; type: in vivo, hepatitis C virus; settings: 1 subject
Protocol: as §1, §2, §3

[3] = healthy subjects, 100 mg QD x 7 days, fasted, PK Day 1, mean ± SD
[4] = 5 mg, healthy subjects, 5 mg single dose, fasted, PK Day 1, mean ± SD
[5] = 10 mg, healthy subjects, 10 mg single dose, fasted, PK Day 1, mean ± SD
[6] = 25 mg, healthy subjects, 25 mg single dose, fasted, PK Day 1, mean ± SD
[7] = 50 mg, healthy subjects, 50 mg single dose, fasted, PK Day 1, mean ± SD
[8] = 50 mg, healthy subjects, 50 mg single dose, fed, PK Day 1, mean ± SD
[9] = 100 mg, healthy subjects, 100 mg QD x 7 days, fasted, PK Day 7, mean ± SD
[10] = 100 mg, healthy subjects, 100 mg single dose, fasted, PK Day 1, mean ± SD

Structure (SMILES): COC(=O)N[C@H](C(=O)N1CCC[C@H]1c1nc2cc(-c3csc4c(-c5ccc(-c6cnc([C@@H]7CCCN7C(=O)[C@H](NC(=O)OC)c7ccccc7)[nH]6)cc5)csc34)ccc2[nH]1)C(C)C [the Compound, [(S)-1-((S)-2-{6-[6-(4-{(S)-2-[1-((R)-2-methoxycarbonylamino-2-phenyl-acetyl)-pyrrolidin-2-yl]-3H-imidazol-4-yl}-phenyl)-thieno[3,2-b]thiophen-3-yl]-1H-benzoimidazol-2-yl}-pyrrolidine-1-carbonyl)-2-methyl-propyl]-carbamic acid methyl ester]
- exposure versus dose (clinical): Dose proportional exposure
- AUC(0-inf) (clinical; 1 mg): 8 ± 5.8 ng·h/mL
- Cmax (clinical; 1 mg): 0.5 ± 0.4 ng/mL
- Tmax (clinical; 1 mg): 4 h
- half-life (clinical; 1 mg): 13 ± 6 h
- AUC(0-inf) (clinical; 5 mg): 39 ± 14.5 ng·h/mL
- Cmax (clinical; 5 mg): 2.2 ± 1.1 ng/mL
- Tmax (clinical; 5 mg): 4 h
- half-life (clinical; 5 mg): 13 ± 0.5 h
- AUC(0-inf) (clinical; 10 mg): 188 ± 3.7 ng·h/mL
- Cmax (clinical; 10 mg): 9 ± 1.2 ng/mL
- Tmax (clinical; 10 mg): 3 h
- half-life (clinical; 10 mg): 24 ± 5.9 h
- AUC(0-inf) (clinical; 25 mg): 216 ± 80.6 ng·h/mL
- Cmax (clinical; 25 mg): 13.8 ± 3.8 ng/mL
- Tmax (clinical; 25 mg): 3.5 h
- half-life (clinical; 25 mg): 18 ± 3.8 h
- AUC(0-inf) (clinical; 50 mg): 576 ± 299 ng·h/mL
- Cmax (clinical; 50 mg): 35.2 ± 16.5 ng/mL
- Tmax (clinical; 50 mg): 4 h
- half-life (clinical; 50 mg): 22 ± 1.8 h
- AUC(0-inf) (clinical; 100 mg): 1340 ± 282 ng·h/mL
- Cmax (clinical; 100 mg): 95 ± 20.4 ng/mL
- Tmax (clinical; 100 mg): 4 h
- half-life (clinical; 100 mg): 19 ± 2 h
- no observable effect level (NOEL) ([1]; 28-day monkey study): 250 mg/kg/day
- toxicological target ([1]; 28 days, doses up to 250 mg/kg/day): did not define any toxicological target
- increase in plasma levels with dose ([1]; cynomolgus monkey, in vivo): little or no increase
- Margin of Safety, Monkey ([1]; proposed human dose 1 mg/subject/day (0.02 mg/kg/day)): 807 fold
- Margin of Safety, Monkey ([1]; proposed human dose 5 mg/subject/day (0.08 mg/kg/day)): 204 fold
- Margin of Safety, Monkey ([1]; proposed human dose 10 mg/subject/day (0.17 mg/kg/day)): 95 fold
- Margin of Safety, Monkey ([1]; proposed human dose 25 mg/subject/day (0.42 mg/kg/day)): 38 fold
- Margin of Safety, Monkey ([1]; proposed human dose 50 mg/subject/day (0.83 mg/kg/day)): 19 fold
- reduction of exposure by food ([2]; 50 mg, after high-fat (about 55 g), high-calorie (about 950 kcal) meal): approximately two-thirds
- increase of AUC0-inf upon reaching steady state ([2]; QD dosing x 7 days): approximately 50%
- increase of Ctrough upon reaching steady state ([2]; QD dosing x 7 days): about 70%
- Ctrough ([2]; healthy subjects, 5 mg single dose, fasted, PK Day 1, mean ± SD): 1.6 ± 0.5 ng/mL
- Ctrough ([2]; healthy subjects, 10 mg single dose, fasted, PK Day 1, mean ± SD): 3.7 ± 1.8 ng/mL
- Ctrough ([2]; healthy subjects, 25 mg single dose, fasted, PK Day 1, mean ± SD): 8.1 ± 2.9 ng/mL
- Ctrough ([2]; healthy subjects, 50 mg single dose, fasted, PK Day 1, mean ± SD): 13.4 ± 4.6 ng/mL
- Ctrough ([2]; healthy subjects, 50 mg single dose, fed, PK Day 1, mean ± SD): 5.6 ± 1.3 ng/mL
- AUC0-24 (column AUC0-inf, footnote 1) [2, 3]: 980 ± 312.4^1 ng · h/mL
- Ctrough [2, 3]: 20.4 ± 9.0 ng/mL
- Ctrough ([2]; healthy subjects, 100 mg QD x 7 days, fasted, PK Day 7, mean ± SD): 34 ng/mL and 34.0 ± 14.4 ng/mL
- Ctrough ([2]; healthy subjects, 100 mg single dose, fasted, PK Day 1, mean ± SD): 17.1 ± 6.2 ng/mL
- exposure versus dose ([2]; healthy volunteers, dose range 5 to 100 mg): Dose proportional exposure
- Cmax [2, 4]: 5.1 ± 1.1 ng/mL
- half-life [2, 4]: 21 ± 4.5 h
- AUC(0-inf) ([2]; 5 mg, healthy subjects, 5 mg single dose, fasted, PK Day 1, mean ± SD, read-out: AUC0-inf): 110 ± 35.4 ng·h/mL
- Tmax ([2]; 5 mg, healthy subjects, 5 mg single dose, fasted, PK Day 1, median (min-max)): 4 h
- Cmax [2, 5]: 11.5 ± 4.3 ng/mL
- half-life [2, 5]: 24 ± 4.7 h
- AUC(0-inf) ([2]; 10 mg, healthy subjects, 10 mg single dose, fasted, PK Day 1, mean ± SD, read-out: AUC0-inf): 259 ± 123 ng·h/mL
- Tmax ([2]; 10 mg, healthy subjects, 10 mg single dose, fasted, PK Day 1, median (min-max)): 5 h
- Cmax [2, 6]: 26.5 ± 11.1 ng/mL
- half-life [2, 6]: 24 ± 3.2 h
- AUC(0-inf) ([2]; 25 mg, healthy subjects, 25 mg single dose, fasted, PK Day 1, mean ± SD, read-out: AUC0-inf): 570 ± 200 ng·h/mL
- Tmax ([2]; 25 mg, healthy subjects, 25 mg single dose, fasted, PK Day 1, median (min-max)): 4 h
- Cmax [2, 7]: 50.9 ± 18.1 ng/mL
- half-life [2, 7]: 22 ± 1.7 h
- AUC(0-inf) ([2]; 50 mg, healthy subjects, 50 mg single dose, fasted, PK Day 1, mean ± SD, read-out: AUC0-inf): 952 ± 336 ng·h/mL
- Tmax ([2]; 50 mg, healthy subjects, 50 mg single dose, fasted, PK Day 1, median (min-max)): 4 h
- Cmax [2, 8]: 13.2 ± 3.3 ng/mL
- half-life [2, 8]: 23 ± 3 h
- AUC(0-inf) ([2]; 50 mg, healthy subjects, 50 mg single dose, fed, PK Day 1, mean ± SD, read-out: AUC0-inf): 335 ± 53.9 ng·h/mL
- Tmax ([2]; 50 mg, healthy subjects, 50 mg single dose, fed, PK Day 1, median (min-max)): 6 h
- Cmax ([2]; 100 mg, healthy subjects, 100 mg QD x 7 days, fasted, PK Day 1, mean ± SD): 86.9 ± 25.9 ng/mL
- Tmax ([2]; 100 mg, healthy subjects, 100 mg QD x 7 days, fasted, PK Day 1, median (min-max)): 4 h
- Cmax [2, 9]: 117 ± 39.4 ng/mL
- half-life [2, 9]: 21 ± 3.4 h
- AUC(0-inf) ([2]; 100 mg, healthy subjects, 100 mg QD x 7 days, fasted, PK Day 7, mean ± SD, read-out: AUC0-inf (cell marked with footnote 1)): 1480 ± 489 ng·h/mL
- Tmax ([2]; 100 mg, healthy subjects, 100 mg QD x 7 days, fasted, PK Day 7, median (min-max)): 3.5 h
- Cmax [2, 10]: 83.3 ± 49.1 ng/mL
- half-life [2, 10]: 23 ± 2.7 h
- AUC(0-inf) ([2]; 100 mg, healthy subjects, 100 mg single dose, fasted, PK Day 1, mean ± SD, read-out: AUC0-inf): 1290 ± 402 ng·h/mL
- Tmax ([2]; 100 mg, healthy subjects, 100 mg single dose, fasted, PK Day 1, median (min-max)): 4 h
- Maximum Viral Load Reduction after Single Dose (HCV Genotype 1b; 1 mg single dose): 3.1^2 log10 IU/mL
- Maximum Viral Load Reduction after Single Dose (HCV Genotype 1b; 10 mg single dose): 3.7^2 log10 IU/mL
- Maximum Viral Load Reduction after Single Dose (HCV Genotype 1b; 50 mg single dose): 3.2^2 log10 IU/mL
- Maximum Viral Load Reduction after Single Dose (HCV Genotype 1b; 100 mg single dose): 3.7^2 log10 IU/mL
